The record followed here is ChEMBL document CHEMBL1201862, “PubChem BioAssay data set” (2004).

Holding throughout (assay): inhibition of tumour cell growth, NCI panel, 48 h
For assay [1], the system named is ACHN.
The test system of assay [2] is BT-549.
In assay [3] the test system is CAKI-1.
The test system of assay [4] is HOP-62.
Assay [5] has as its system HT-29.
Assay [6] has as its system IGROV-1.
For assay [7], the system named is KM12.
The subject of assay [8] is M14.
The subject of assay [9] is MDA-N.
For assay [10], the system named is NCI-H23.
For assay [11], the system named is OVCAR-5.
The subject of assay [12] is SF-268.
The subject of assay [13] is SF-295.
In assay [14] the test system is SK-MEL-28.
The test system of assay [15] is SN12C.
The subject of assay [16] is SNB-75.
The test system of assay [17] is SR.
Assay [18] has as its system T47D.
Assay [19] has as its system TK-10.
Assay [20] concerns UO-31.

Molecules are shown by their SMILES.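 Cultured in 96-well plates, cells were exposed to test compound for 48 hours across five concentrations. The concentration for 50% growth inhibition is given as GI50.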 Calls of active or inactive are those of the source. Cut-off read from the data, not from the text of the source: active = GI50 up to about 1.1 µM and inactive = higher.

On to `CN(C)Cc1c[nH]c2ncnc(O)c12`, for which the GI50 in [1] is 38 µM (inactive); in assay [2], > 100 µM (inactive); in assay [3] it was 19.8 µM (inactive); in assay [4], > 100 µM (inactive); in [5] it was 28.2 µM (inactive); in [6], 35 µM (inactive). Besides, the GI50 in assay [7] is > 100 µM (inactive); in assay [8], 41.2 µM (inactive); in [9], 23.1 µM (inactive); in [10], 32.2 µM (inactive); in assay [11], > 100 µM (inactive); in [12] it was 73.1 µM (inactive). In addition, the GI50 was > 100 µM (inactive) in assay [13]; 46.1 µM (inactive) in [14]; 34.2 µM (inactive) in assay [15]; 33.3 µM (inactive) in assay [16]; 27.1 µM (inactive) in [17]; 33.1 µM (inactive) in assay [18]. Besides, the GI50 is 37.7 µM (inactive) in assay [19] and 62.2 µM (inactive) in assay [20].
With `CN1CCc2ccccc2C1Cc1ccccc1NC(=O)c1sc2ccccc2c1Cl` (configuration not stated), the GI50 in assay [1], in [2], in assay [3], in [4], in [6] and in [7] was > 100 µM (inactive) each time. In addition, the GI50 in [8], in [9], in assay [10], in [12], in [13] and in assay [14] was > 100 µM (inactive) throughout. The GI50 in assay [15], in assay [16], in assay [17], in [18], in assay [19] and in [20] was > 100 µM (inactive) in each case.
In the case of `CN(CCNC(=O)c1cn(C)c2c1ccc1cc(Cl)ccc12)CCNC(=O)c1cn(C)c2c1ccc1cc(Cl)ccc12`, the GI50 in assay [1] is 5.25 µM (inactive); in assay [2] it was 3.43 µM (inactive); in [3] it was 1.6 µM (inactive); in assay [4] it was 1.79 µM (inactive); in assay [5], 1.93 µM (inactive); in assay [6] it was 3.57 µM (inactive). Moreover, the GI50 in assay [7] is 1.67 µM (inactive); in [8] it was 1.59 µM (inactive); in assay [9] it was 1.95 µM (inactive); in assay [10], 2.01 µM (inactive); in assay [11], 1.97 µM (inactive); in assay [12] it was 1.77 µM (inactive). For the same compound, the GI50 in assay [13] was 1.86 µM (inactive); in [14], 5.85 µM (inactive); in [15], 1.78 µM (inactive); in assay [16] it was 1.68 µM (inactive); in assay [17] it was 5.11 µM (inactive); in [18] it was 2.13 µM (inactive). The GI50 is 7.13 µM (inactive) in assay [19] and 1.53 µM (inactive) in [20].
Regarding `NC(CSC1c2ccccc2-c2ccccc21)C(=O)O` (configuration not stated), the GI50 in [1], in assay [2], in [3], in assay [4], in assay [5] and in assay [6] was > 100 µM (inactive) each time. The GI50 in assay [7], in assay [8], in [9], in assay [10], in [11] and in assay [13] was > 100 µM (inactive) each time. Also, the GI50 in assay [14] is > 100 µM (inactive); in assay [15] it was > 100 µM (inactive); in assay [16], > 100 µM (inactive); in [17] it was 69.2 µM (inactive); in assay [18], > 100 µM (inactive); in assay [19], > 100 µM (inactive). Moreover, the GI50 in assay [20] was > 100 µM (inactive).
Turning to `COc1cc(/C=N\NC(=O)C[N+](C)(C)C)cc(OC)c1OC`, the GI50 in [1], in assay [2], in assay [3], in assay [4], in assay [5] and in [6] was > 10 µM (inactive) in each case. In addition, the GI50 in [7], in assay [8], in assay [9], in assay [10], in assay [11] and in assay [12] was > 10 µM (inactive) each time. Besides, the GI50 in assay [13], in assay [14], in assay [15], in assay [16], in [17] and in assay [18] was > 10 µM (inactive) throughout. In assay [19], the GI50 is > 10 µM (inactive).
On to `CCN(CC)/N=C\c1c2ccccc2cc2ccccc12`, for which the GI50 was 96.8 µM (inactive) in [1]; 84.7 µM (inactive) in assay [2]; 33 µM (inactive) in [3]; 25 µM (inactive) in [5]; 39.4 µM (inactive) in assay [6]; 30.8 µM (inactive) in assay [7]. Also, the GI50 in assay [8] was 22 µM (inactive); in assay [9] it was 39 µM (inactive); in assay [10] it was 58.9 µM (inactive); in [11], 37.5 µM (inactive); in assay [12] it was 72.8 µM (inactive); in assay [13], 39 µM (inactive). For the same compound, the GI50 is 11.9 µM (inactive) in [14]; 48.5 µM (inactive) in assay [15]; 18.3 µM (inactive) in assay [16]; 26.6 µM (inactive) in [17]; 42.7 µM (inactive) in [18]; 55 µM (inactive) in assay [19]. The GI50 in [20] was 48.8 µM (inactive).
`C1=N\c2ccc(cc2)/N=C\c2ccc(cc2)OCc2cccc(n2)COc2ccc/1cc2`: the GI50 in assay [1], in assay [2], in assay [3], in [4], in assay [5] and in [6] was > 100 µM (inactive) throughout. Moreover, the GI50 in assay [7], in assay [8], in assay [9], in [10], in assay [11] and in assay [12] was > 100 µM (inactive) throughout. The GI50 in [13], in assay [14], in assay [15], in assay [16], in [17] and in [18] was > 100 µM (inactive) throughout. The GI50 in assay [20] was > 100 µM (inactive).
In the case of `COC(=O)C(COC(=O)/C=C/c1ccc(OC(C)=O)c(OC(C)=O)c1)NC(=O)/C=C/c1ccc(OC(C)=O)c(OC(C)=O)c1` (configuration not stated), the GI50 in assay [1] was 25.6 µM (inactive); in assay [2] it was 25.2 µM (inactive); in assay [3], 18.5 µM (inactive); in [4] it was 23 µM (inactive); in assay [5], 19.8 µM (inactive); in assay [6], 43.6 µM (inactive). In addition, the GI50 is 17.6 µM (inactive) in assay [7]; 17.6 µM (inactive) in assay [8]; 20.5 µM (inactive) in assay [9]; 25.9 µM (inactive) in [10]; 38.7 µM (inactive) in [11]; > 10 µM (inactive) in assay [12]. Besides, the GI50 was 26.2 µM (inactive) in assay [14]; 19.6 µM (inactive) in [15]; 29.9 µM (inactive) in assay [16]; 18 µM (inactive) in assay [17]; 16.6 µM (inactive) in assay [18].
`CCN(CC)P(=O)(c1ccc2c(c1)OCCOCCOCCOCCO2)N(CC)CC`: the GI50 in assay [1], in assay [2], in [3], in assay [4], in assay [6] and in [7] was > 100 µM (inactive) in each case. The GI50 in [8], in [9], in assay [10], in [12], in assay [13] and in [14] was > 100 µM (inactive) each time. For the same compound, the GI50 in assay [15], in [16], in assay [17], in assay [18], in assay [19] and in [20] was > 100 µM (inactive) throughout.
Turning to `O=C(O)c1c2c(cc3c1CC1(Cc4ccccc4C1)C3)CCC2`, the GI50 in assay [1] was 32.7 µM (inactive); in assay [2] it was 20.8 µM (inactive); in assay [3], 53.2 µM (inactive); in assay [4] it was > 100 µM (inactive); in assay [5], 73.8 µM (inactive); in assay [6], 59.4 µM (inactive). Also, the GI50 is 59.3 µM (inactive) in assay [7]; > 100 µM (inactive) in assay [9]; 67.5 µM (inactive) in assay [10]; > 100 µM (inactive) in assay [11]; > 100 µM (inactive) in [12]; > 100 µM (inactive) in [13]. For the same compound, the GI50 in assay [14] is > 100 µM (inactive); in assay [15], 67.6 µM (inactive); in assay [16] it was > 100 µM (inactive); in [17], 52.8 µM (inactive); in [18], 77.1 µM (inactive); in [19] it was > 100 µM (inactive). Also, the GI50 in assay [20] is 30.3 µM (inactive).
With `N#CC(C#N)=C1c2ccccc2C(=NN)c2ccccc21`, the GI50 in assay [1] is 12.3 µM (inactive); in [2] it was > 100 µM (inactive); in [3], > 25.7 µM (inactive); in assay [4] it was 10.6 µM (inactive); in [5], > 100 µM (inactive); in assay [6] it was > 100 µM (inactive). The GI50 in assay [7] is > 100 µM (inactive); in assay [8] it was 88.1 µM (inactive); in assay [9], > 100 µM (inactive); in assay [11] it was > 100 µM (inactive); in assay [12], > 61.4 µM (inactive); in assay [13], 4.83 µM (inactive). The GI50 in assay [14] was > 100 µM (inactive); in assay [15] it was > 100 µM (inactive); in assay [16], > 43.9 µM (inactive); in [17] it was > 100 µM (inactive); in assay [18], 0.508 µM (active); in assay [19], > 100 µM (inactive). Also, the GI50 in assay [20] was > 100 µM (inactive).
